Source: patent US11932654B2, “Nimbolide analogs as anti-cancer agents and preparation thereof” (priority 2018, dated 2024)

How the values were obtained:
[1] = Acute toxicity test with histopathology
Protocol: Acute toxicity test: Safety tests begin with acute toxicity testing, where the animals are given a single dose of the test compound. The aim of the tests is to determine the range between the dose that causes no adverse effect and the dose that is life-threatening. […] Different doses (50, 25, 10, and 5 mg/kg body weight) of the test compound are given to the animals separately through IP injection. Post injection, the animals were monitored for the first 4 h and observed at every hourly interval for next 24 h. Further, animals were observed everyday for 14 days for any signs of toxic effects and behavior of animals. On day 14 all the surviving animals are sacrificed by a humane method and dissected to investigate signs of toxicity internally. […] If the drug is intended for the treatment of life-threatening diseases, toxicity is less of a concern than in a drug intended for use in healthy individuals.
Histopathological examination: For pathological studies, 5 μm sections of formalin-fixed, paraffin-embedded tissue were prepared and stained with haematoxylin and eosin. After haematoxylin-eosin (HE) staining, the slides were observed and the images were taken using optical microscope (Axioplan-II imaging). All slides were reviewed in a blinded fashion by a single pathologist and assessed for the presence of necrotic lesions (nodules) in the tumors and organs of different groups of mice.

NIH3T3 cells = experiment: In vitro anticancer activity, SRB assay, NIH3T3; format: cell-based
Protocol: (§1) In vitro anticancer activity: Cells were harvested from exponential phase cultures by trypsinization, counted and plated in 96-well plate. Optimal seeding densities for different cell lines in each plate were 5000 cells per well. After 24 h cells were treated with \ the newly synthesized compound at a dose range of 0.1-100 μm final concentration. Thereafter, cells were allowed to grow for 48 h before determination of cell survival by the SRB assay. Then the cells were fixed with 10% cold trichloroacetic acid for 1 h at 4° C. After two washes with deionized water, fixed cells were stained with 50 μL of SRB solution (1% in acetic acid) for 30 min and subsequently washed twice with 1% acetic acid to remove unbound stain. The plates were left to dry at room temperature and bound stain was solubilized with 100 μL of 10 mM buffered Tris base for reading the […] at 540 nm.

caspase-8 = experiment: Caspase assay activity, caspase-8, Panc-1 cells; format: cell-based; conditions: fluorimetric assay, increasing concentrations
Protocol: Caspase assay activity: Caspase-3, caspase-8 and caspase-9 protease activities were determined using a commercial fluorescence assay kit according to the manufacturer's instructions, Briefly, pancreatic cancer cells were treated with different concentrations of IM-1372-Kn-13 for 24 h were re-suspended in 50 μL of chilled cell lysis buffer; cells were then incubated on ice for 10 min and centrifuged for 1 min in a micro-centrifuge (10,000 g). Then supernatants were transferred (cytosolic extract) to a fresh tube and protein concentration was assayed. Next, diluted 100 μg protein was added to 50 μL cell lysis buffer for each assay. Subsequently, 50 μL of 2× reaction buffer and 5 μL of the 4 mM Ac-DEVD AMC (caspase-3)/Ac-VETD-AMC (caspase-8)/[…] were added and incubated at 37° C. for 2 h (samples read at […] in a microtiter plate reader).

[2] = system: Pan-02 pancreatic cancer cell line; experiment: In vitro anticancer activity, SRB assay, Pan-02; format: cell-based; conditions: Pan02, 48 h
Protocol: (§2) Cell culture: Human lung adenocarcinoma cell line (A549 cell line), pancreatic cancer cell line (Panc-1, Pan-02), prostate cancer cell line (DU145, PC3), Brest cancer cell line (MCF-7) was grown in DIEM (Dulbecco's modifications of eagle's medium with L-glutamine & 4.5 g/L glucose) supplemented with fetal bovine serum in a humidified atmosphere of a 5% CO2 at 37° C.
as §1

[3] = system: DU-145 prostate cancer cell line; experiment: In vitro anticancer activity, SRB assay, DU-145; format: cell-based; conditions: Homo sapiens, 48 h, NA = Not Active
Protocol: as §2, §1

[4] = Biochemical analysis of serum of tumor xenograft mice; format: in vivo, nude mice; conditions: for Albumin / Alkaline phosphatase / Creatinine / Glucose / SGOT / SGPT / Total protein / Urea: xenograft mice, mean ± SE
Protocol: Establishment of Pancreatic cancer xenograft model: To establish tumor in mice, Pan-02 cells (7×10^6) were suspended in 1:1 RPMI medium mixed with matrigel and subcutaneously implanted on right flank of the each mice. The injection sites were examined daily for the appearance of tumors. On 10th day these animals were randomized and divided into 3 groups (6 mice in each group). Group I served as control group received 20% ethanol three times in a week. Test group animals in Group II and III received intratumoral injection of IM-1372-Kn-13 at 10 mg and 25 mg/kg body weight respectively three times in a week. All groups received 5 repeated doses in 12 days. Mice were weighed and tumor volumes were measured 3 times a week by Vernier caliper. Tumor volume in individual mice was calculated by the following formula. 0.5×L (W)^2, Where L is length, W is width of the tumor. The control group animals were euthanized when tumor volume is reached heavier to animal. One-week after completion of treatment period, the animals were sacrificed, and tumors were excised, fixed, and embedded in paraffin. At the end of treatment, blood samples were collected to perform clinical biochemistry.
Biochemical analysis: In acute toxicity experiment, blood samples were collected from all the animals 1 week after the last dose and mice were sacrificed by cervical decapitation. The obtained serum was analyzed in clinical chemistry for the assessment of liver function tests (LFT), activity of serum alkaline phosphatase (ALP), alanine aminotransferase (ALT), aspartate aminotransferase (AST), kidney function tests (RFT) (serum urea and creatinine). The same tests were performed for serum samples collected from three groups of tumor xenograft mice used for determining in vivo activity of test compound against pancreatic cancer. The measurement of these biochemical parameters was done in Clinical Biochemical analyzer (Tulip coralab 3000™).

[5] = system: A549 lung adenocarcinoma cell line; experiment: In vitro anticancer activity, SRB assay, A549; format: cell-based; conditions: Homo sapiens, 48 h, NA = Not Active
Protocol: as §2, §1

SMILES: COC(=O)C[C@H]1[C@]2(C)C3=C(C)[C@H](C4=CC5OC4C(C(=O)OC)=C5C(=O)OC)C[C@@H]3O[C@@H]2[C@@H]2OC(=O)[C@]3(C)C=CC(=O)[C@@]1(C)C23 (stereo partly shown) [A4]
- organ histopathology ([1]; 25 mg/kg body weight): all organs including liver, kidney and spleen appeared normal
- survival ([1]; 25 mg/kg, 10 mg/kg and 5 mg/kg): survived beyond the 24 h of observation
- kidney histopathology ([1]; 50 mg/kg body weight): moderate capsular thickening and fibrosis in the renal capsules
- liver histopathology ([1]; 50 mg/kg body weight): minor inflammation in the liver
- adverse gastrointestinal effects ([1]; all the mice used in the experiment): no adverse gastrointestinal effects were observed
- mortality ([1]; one mouse that received 50 mg/kg): died within 24 h
- toxic effects in acute toxicity studies ([1]; up to 50 mg/kg): failed to show any toxic effects
- cytotoxic activity (NIH3T3 cells): no activity was observed
- activity of caspase-8 (caspase-8): increased significantly in a dose-dependent manner
- IC50 [2]: 520 nM
- IC50 [3]: 580 nM
- serum total protein and albumin levels ([4]; group II and III compared to control group I): significantly increased
- serum ALT, AST and ALP enzyme activities ([4]; treated xenograft groups vs elevated control group I): returned to normal
- elevated levels of serum urea and creatinine ([4]; tumor-bearing mice, compared to group I): significantly fetched down
- Albumin ([4]; 10 mg/kg): 3.16 ± 0.2 g/dL
- Alkaline phosphatase ([4]; 10 mg/kg): 685.26 ± 28.8 U/L
- Creatinine ([4]; 10 mg/kg): 1.56 ± 0.4 mg/dL
- Glucose ([4]; 10 mg/kg): 77.60 ± 3.0 mg/dL
- SGOT ([4]; 10 mg/kg): 56.12 ± 5.8 U/L
- SGPT ([4]; 10 mg/kg): 47.05 ± 5.8 U/L
- Total protein ([4]; 10 mg/kg): 6.24 ± 0.5 g/dL
- Urea ([4]; 10 mg/kg): 46.81 ± 5.8 mg/dL
- Albumin ([4]; 25 mg/kg): 3.61 ± 0.1 g/dL
- Alkaline phosphatase ([4]; 25 mg/kg): 545.63 ± 24.9 U/L
- Creatinine ([4]; 25 mg/kg): 0.80 ± 0.1 mg/dL
- Glucose ([4]; 25 mg/kg): 108.42 ± 4.7 mg/dL
- SGOT ([4]; 25 mg/kg): 32.20 ± 2.4 U/L
- SGPT ([4]; 25 mg/kg): 24.49 ± 4.0 U/L
- Total protein ([4]; 25 mg/kg): 8.05 ± 0.3 g/dL
- Urea ([4]; 25 mg/kg): 41.23 ± 3.7 mg/dL
- IC50 [5]: 4540 nM
